Measured values: paper PMC4843002, “Identification of pyrazolopyridazinones as PDEδ inhibitors” (Nature Communications, 2016)

Tests used:
Capan-1 cells = assay: RTCA growth profile; format: cell-based, human; conditions: Capan-1, doses up to 24 μM
Experimental: (§1) RTCA was performed using 16-well E-plates on the Dual Plate xCELLigence instrument (Roche Applied Science, Indianapolis, IN). This system measures a dimensionless parameter called cell index, which evaluates the ionic environment at an electrode/solution interface and integrates information on cell number. Depending on the cell line 5 × 10^3–1 × 10^4 cells were plated in each well of the 16-well plates in 200 μl of cell culture medium. After seeding, cells were allowed to settle for 30 min at room temperature before being inserted into the xCELLigence instrument in a humidified incubator at 37 °C with 10% CO2. For RTCA experiments assaying cells stably expressing the inducible shRNA transgene, cells were seeded onto the E-plates in medium supplemented with 200 ng ml^−1 doxycycline. […] The small-molecule inhibitors were added at indicated time points and in the indicated concentrations. […] All assays were performed in duplicates. The cell index was normalized to 1 at the time point of drug administration.

MIA PaCa-2 cells = assay: RTCA growth profile; format: cell-based, human; conditions: MIA PaCa-2, doses higher than 3 μM
Experimental: as §1

Erk phosphorylation = assay: western blot, Erk phosphorylation in PANC-1
Experimental: To examine whether PDEδ inhibition by Deltarasin and Deltazinone 1 downregulates the signal transduction via these pathways, we examined the phosphorylation of extracellular signal regulated kinase (Erk) and S6 Ribosomal Protein (S6P) in the oncogenic KRas-dependent Panc-Tu-1 and KRas-independent PANC-1 cells. […] Cells were lysed with RIPA-buffer (20 mM Tris pH 7.5, 150 mM NaCl, 0.5 mM Na2 EDTA, 1 % sodium deoxycholate, 0.1% sodium dodecyl sulfate, 1% IGEPAL supplemented with Complete Mini EDTA-free protease inhibitor (Roche Applied Science) and 1% phosphatase inhibitor cocktail 2 and 3 (P5726 and P0044, Sigma Aldrich), scraped off after 5 min on ice and centrifuged at 14,000g for 20 min at 4 °C. SDS–polyacrylamide gel electrophoresis was carried out with 10–25 μg of whole-cell lysate from each sample. The gels were blotted onto polyvinylidene difluoride membrane (Millipore) and blocked for 1 h at room temperature. […] Blots were scanned on a LI-COR Odyssey imaging system.
Western blots were quantified using ImageJ. The background of the blots was subtracted by applying the rolling ball subtraction with a radius of 50 pixels. Afterwards the integrated intensity of the bands was measured.

GABA transaminase = target: T1, GABA transaminase (Rattus norvegicus, UniProt P50554); assay: Cerep enzyme and cell-based assays; format: biochemical; conditions: read-out: % Inhibition of Control Values
T1 construct: Eurofins Pharma Discovery Services (CEREP diversity panel, outsourced assay)

MT1 (ML1A) (h) = target: T2, MT1 (ML1A) (h) (Homo sapiens, UniProt P48039); assay: Cerep binding, agonist radioligand; conditions: read-out: % Inhibition of Control Specific Binding
T2 construct: purchased Eurofins Pharma Discovery Services (CEREP diversity panel)
T2 sequence (P48039 whole entry): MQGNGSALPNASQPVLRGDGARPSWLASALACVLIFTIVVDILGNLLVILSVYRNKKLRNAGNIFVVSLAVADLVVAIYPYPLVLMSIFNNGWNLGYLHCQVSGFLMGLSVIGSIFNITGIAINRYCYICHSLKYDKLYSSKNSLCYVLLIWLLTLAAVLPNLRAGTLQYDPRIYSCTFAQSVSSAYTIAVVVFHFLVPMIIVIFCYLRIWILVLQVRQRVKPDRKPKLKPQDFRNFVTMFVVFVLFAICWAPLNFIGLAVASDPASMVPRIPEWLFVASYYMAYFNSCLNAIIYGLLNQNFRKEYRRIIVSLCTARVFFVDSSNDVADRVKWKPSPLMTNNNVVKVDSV

V1a (h) = target: T3, V1a (h) (Homo sapiens, UniProt P37288); assay: Cerep binding, agonist radioligand; conditions: read-out: % Inhibition of Control Specific Binding
T3 construct: purchased Eurofins Pharma Discovery Services (CEREP diversity panel)
T3 sequence (P37288 whole entry): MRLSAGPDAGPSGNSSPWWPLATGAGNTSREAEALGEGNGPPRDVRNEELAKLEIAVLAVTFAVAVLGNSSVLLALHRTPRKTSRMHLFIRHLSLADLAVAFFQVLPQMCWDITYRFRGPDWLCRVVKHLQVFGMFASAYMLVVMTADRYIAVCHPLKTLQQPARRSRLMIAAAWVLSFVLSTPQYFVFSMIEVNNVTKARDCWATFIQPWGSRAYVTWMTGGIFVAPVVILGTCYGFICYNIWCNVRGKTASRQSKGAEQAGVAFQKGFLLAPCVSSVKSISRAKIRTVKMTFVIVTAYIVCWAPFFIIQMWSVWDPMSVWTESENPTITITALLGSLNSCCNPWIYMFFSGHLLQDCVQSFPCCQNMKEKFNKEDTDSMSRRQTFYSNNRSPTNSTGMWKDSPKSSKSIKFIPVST

kainate = assay: Cerep binding, agonist radioligand; conditions: 5 µM
AMPA = assay: Cerep binding, agonist radioligand; conditions: 5 µM
PKCalpha (h) = target: T4, PKCalpha (h) (Homo sapiens, UniProt P17252); assay: Cerep enzyme and cell-based assays; format: biochemical; conditions: read-out: % Inhibition of Control Values
T4 construct: Eurofins Pharma Discovery Services (CEREP diversity panel, outsourced assay)

ATPase (Na+/K+) = assay: Cerep enzyme and cell-based assays; format: biochemical; conditions: 5 µM
[1] = mouse, in vivo
Experimental: (§2) Determination of pharmacokinetic properties in vivo
50% physiological saline / 40% water.
(§3) The regression equation of the calibration curve was used to calculate plasma concentrations. Pharmacokinetic parameters were calculated using the PKSolver
(§4) Animal experiments and care were conducted at Synovo GmbH (Tübingen, Germany) in accordance with the guidelines of institutional authorities and approved

[2] = target: T5, phosphatase 1B (h) (PTP1B) (Homo sapiens, UniProt P18031); assay: Cerep enzyme and cell-based assays; format: biochemical; conditions: read-out: % Inhibition of Control Values
T5 construct: Eurofins Pharma Discovery Services (CEREP diversity panel, outsourced assay)
T5 sequence (P18031 whole entry): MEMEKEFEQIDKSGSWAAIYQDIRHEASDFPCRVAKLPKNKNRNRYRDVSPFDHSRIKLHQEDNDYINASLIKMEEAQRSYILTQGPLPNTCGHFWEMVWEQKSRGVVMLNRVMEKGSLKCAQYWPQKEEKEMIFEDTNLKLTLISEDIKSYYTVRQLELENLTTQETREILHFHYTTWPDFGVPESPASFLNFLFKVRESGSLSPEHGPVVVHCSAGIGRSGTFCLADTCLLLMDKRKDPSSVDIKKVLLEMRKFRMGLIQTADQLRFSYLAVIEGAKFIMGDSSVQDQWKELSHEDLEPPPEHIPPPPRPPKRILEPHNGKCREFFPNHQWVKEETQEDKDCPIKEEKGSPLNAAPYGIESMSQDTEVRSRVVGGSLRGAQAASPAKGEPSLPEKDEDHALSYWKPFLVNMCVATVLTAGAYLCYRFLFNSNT

in vivo = conditions: female, NMRI, mouse, 3 mg/kg
Experimental: as §2
50% physiological saline / 40% water.
as §3, §4

TRH1 (h) = target: T6, TRH1 (h) (Homo sapiens, UniProt P34981); assay: Cerep binding, agonist radioligand; conditions: read-out: % Inhibition of Control Specific Binding
T6 construct: purchased Eurofins Pharma Discovery Services (CEREP diversity panel)
T6 sequence (P34981 whole entry): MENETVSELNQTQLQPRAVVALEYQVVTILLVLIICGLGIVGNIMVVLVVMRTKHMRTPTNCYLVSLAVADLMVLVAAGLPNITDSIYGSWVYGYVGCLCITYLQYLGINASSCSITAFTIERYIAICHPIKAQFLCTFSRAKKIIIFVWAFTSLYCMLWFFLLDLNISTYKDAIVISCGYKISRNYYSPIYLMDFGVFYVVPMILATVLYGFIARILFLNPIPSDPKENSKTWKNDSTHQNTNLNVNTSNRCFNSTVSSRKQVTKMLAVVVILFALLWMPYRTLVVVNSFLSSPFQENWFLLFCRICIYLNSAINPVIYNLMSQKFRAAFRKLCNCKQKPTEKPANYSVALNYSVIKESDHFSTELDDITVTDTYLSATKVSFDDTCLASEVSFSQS

A3 (h) = target: T7, A3 (h) (Homo sapiens, UniProt P0DMS8); assay: Cerep binding, agonist radioligand; conditions: read-out: % Inhibition of Control Specific Binding
T7 construct: purchased Eurofins Pharma Discovery Services (CEREP diversity panel)
T7 sequence (P0DMS8 whole entry): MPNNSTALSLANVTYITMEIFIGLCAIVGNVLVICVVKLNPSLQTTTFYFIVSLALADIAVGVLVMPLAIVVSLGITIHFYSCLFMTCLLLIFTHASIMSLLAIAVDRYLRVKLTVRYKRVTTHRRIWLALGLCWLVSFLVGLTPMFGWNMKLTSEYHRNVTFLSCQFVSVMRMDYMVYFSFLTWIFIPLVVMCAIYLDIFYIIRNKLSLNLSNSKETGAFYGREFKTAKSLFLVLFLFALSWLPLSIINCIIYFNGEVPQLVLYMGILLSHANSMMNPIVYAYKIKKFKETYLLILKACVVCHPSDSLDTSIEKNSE

[3] = tested on: Ca2+ channel (L, diltiazem site) (benzothiazepines); assay: Cerep binding, antagonist radioligand; conditions: 5 µM
[4] = tested on: Ca2+ channel (L, dihydropyridine site); assay: Cerep binding, antagonist radioligand; conditions: 5 µM
[5] = tested on: COMT (catechol-O-methyl transferase); assay: Cerep enzyme and cell-based assays; format: biochemical; conditions: 5 µM
GR (h) = target: T8, GR (h) (Homo sapiens, UniProt P04150); assay: Cerep binding, agonist radioligand; conditions: read-out: % Inhibition of Control Specific Binding
T8 construct: purchased Eurofins Pharma Discovery Services (CEREP diversity panel)
T8 sequence (P04150 whole entry): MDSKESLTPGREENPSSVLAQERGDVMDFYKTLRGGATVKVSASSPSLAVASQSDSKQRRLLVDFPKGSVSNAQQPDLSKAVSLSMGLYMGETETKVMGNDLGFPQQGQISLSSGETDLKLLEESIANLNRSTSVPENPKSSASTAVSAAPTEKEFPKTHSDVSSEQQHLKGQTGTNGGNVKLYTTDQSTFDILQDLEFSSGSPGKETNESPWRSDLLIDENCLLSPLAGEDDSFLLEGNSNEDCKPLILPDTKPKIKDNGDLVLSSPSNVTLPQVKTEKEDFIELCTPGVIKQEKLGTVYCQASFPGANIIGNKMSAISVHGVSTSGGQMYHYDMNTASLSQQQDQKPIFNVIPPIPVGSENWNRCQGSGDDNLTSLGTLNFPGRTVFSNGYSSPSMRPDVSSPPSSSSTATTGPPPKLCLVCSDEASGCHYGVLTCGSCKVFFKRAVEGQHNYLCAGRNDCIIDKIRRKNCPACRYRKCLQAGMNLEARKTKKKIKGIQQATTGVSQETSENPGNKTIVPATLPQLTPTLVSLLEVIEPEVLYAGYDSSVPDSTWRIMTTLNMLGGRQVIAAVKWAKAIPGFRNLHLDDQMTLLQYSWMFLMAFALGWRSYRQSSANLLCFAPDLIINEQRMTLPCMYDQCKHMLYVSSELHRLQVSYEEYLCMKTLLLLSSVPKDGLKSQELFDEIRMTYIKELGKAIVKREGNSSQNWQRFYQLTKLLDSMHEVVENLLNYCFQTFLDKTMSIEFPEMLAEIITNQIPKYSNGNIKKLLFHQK

beta 2 (h) = target: T9, beta 2 (h) (Homo sapiens, UniProt P07550); assay: Cerep binding, agonist radioligand; conditions: read-out: % Inhibition of Control Specific Binding
T9 construct: purchased Eurofins Pharma Discovery Services (CEREP diversity panel)
T9 sequence (P07550 whole entry): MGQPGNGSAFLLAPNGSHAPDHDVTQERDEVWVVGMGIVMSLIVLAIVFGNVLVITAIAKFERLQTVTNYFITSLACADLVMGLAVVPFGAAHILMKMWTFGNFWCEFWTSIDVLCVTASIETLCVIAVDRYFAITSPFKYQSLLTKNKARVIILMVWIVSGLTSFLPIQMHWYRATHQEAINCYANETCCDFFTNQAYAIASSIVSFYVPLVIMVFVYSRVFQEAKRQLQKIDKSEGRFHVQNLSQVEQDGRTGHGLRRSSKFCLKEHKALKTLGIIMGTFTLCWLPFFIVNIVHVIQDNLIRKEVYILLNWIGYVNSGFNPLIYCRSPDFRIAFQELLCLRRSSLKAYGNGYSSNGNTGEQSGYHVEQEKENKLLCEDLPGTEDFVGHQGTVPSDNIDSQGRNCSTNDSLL

HDAC6 (h) = target: T10, HDAC6 (h) (Homo sapiens, UniProt Q9UBN7); assay: Cerep enzyme and cell-based assays; format: biochemical; conditions: read-out: % Inhibition of Control Values
T10 construct: Eurofins Pharma Discovery Services (CEREP diversity panel, outsourced assay)

[6] = target: T11, MAO-B (h) recombinant enzyme (Homo sapiens, UniProt P27338); assay: Cerep enzyme and cell-based assays; format: biochemical; conditions: read-out: % Inhibition of Control Values
T11 construct: Eurofins Pharma Discovery Services (CEREP diversity panel, outsourced assay)
T11 sequence (P27338 whole entry): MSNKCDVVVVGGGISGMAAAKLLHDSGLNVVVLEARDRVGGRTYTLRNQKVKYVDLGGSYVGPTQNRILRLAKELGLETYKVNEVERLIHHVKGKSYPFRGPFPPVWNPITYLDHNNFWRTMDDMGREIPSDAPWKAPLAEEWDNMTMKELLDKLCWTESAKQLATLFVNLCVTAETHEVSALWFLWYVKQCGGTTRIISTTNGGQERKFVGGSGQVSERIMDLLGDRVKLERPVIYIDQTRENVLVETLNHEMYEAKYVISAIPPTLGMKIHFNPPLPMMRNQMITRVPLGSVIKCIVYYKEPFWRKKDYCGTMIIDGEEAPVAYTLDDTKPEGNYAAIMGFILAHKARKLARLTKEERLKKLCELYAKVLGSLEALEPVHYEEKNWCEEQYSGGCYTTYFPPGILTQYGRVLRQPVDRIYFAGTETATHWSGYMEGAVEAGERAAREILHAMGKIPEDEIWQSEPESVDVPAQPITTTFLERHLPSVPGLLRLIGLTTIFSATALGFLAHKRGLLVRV

HDAC11 (h) = target: T12, HDAC11 (h) (Homo sapiens, UniProt Q96DB2); assay: Cerep enzyme and cell-based assays; format: biochemical; conditions: read-out: % Inhibition of Control Values
T12 construct: Eurofins Pharma Discovery Services (CEREP diversity panel, outsourced assay)
T12 sequence (Q96DB2 whole entry): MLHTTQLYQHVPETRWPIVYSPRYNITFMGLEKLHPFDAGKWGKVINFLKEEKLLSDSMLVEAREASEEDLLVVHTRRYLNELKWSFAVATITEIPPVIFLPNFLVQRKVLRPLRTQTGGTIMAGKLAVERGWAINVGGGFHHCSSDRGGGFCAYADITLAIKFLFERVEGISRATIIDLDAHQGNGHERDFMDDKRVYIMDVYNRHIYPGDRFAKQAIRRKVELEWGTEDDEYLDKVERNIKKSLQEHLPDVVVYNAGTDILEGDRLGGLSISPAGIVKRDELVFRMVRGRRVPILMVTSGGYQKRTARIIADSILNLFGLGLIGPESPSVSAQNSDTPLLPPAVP

CENP-E (h) = target: T13, CENP-E (h) (Homo sapiens, UniProt Q02224); assay: Cerep enzyme and cell-based assays; format: biochemical; conditions: read-out: % Inhibition of Control Values
T13 construct: Eurofins Pharma Discovery Services (CEREP diversity panel, outsourced assay)

acetylcholinesterase (h) = target: T14, acetylcholinesterase (h) (Homo sapiens, UniProt P22303); assay: Cerep enzyme and cell-based assays; format: biochemical; conditions: read-out: % Inhibition of Control Values
T14 construct: Eurofins Pharma Discovery Services (CEREP diversity panel, outsourced assay)

[7] = target: T15, sirtuin 1 (h) (inhibitor effect) (Homo sapiens, UniProt Q96EB6); assay: Cerep enzyme and cell-based assays; format: biochemical; conditions: read-out: % Inhibition of Control Values
T15 construct: Eurofins Pharma Discovery Services (CEREP diversity panel, outsourced assay)

[8] = target: T16, interaction between mCitrine-KRas and mCherry-PDEδ (Homo sapiens, UniProt O43924); assay: FLIM-FRET, mCitrine-KRas/mCherry-PDEδ in MDCK cells after Bryostatin; format: cell-based, canine; conditions: 5 μM inhibitor after 1 μM Bryostatin-1, MDCK cells
T16 construct: expressed in transfected cells; host or cells: MDCK cells, transient transfection
T16 sequence (O43924 whole entry): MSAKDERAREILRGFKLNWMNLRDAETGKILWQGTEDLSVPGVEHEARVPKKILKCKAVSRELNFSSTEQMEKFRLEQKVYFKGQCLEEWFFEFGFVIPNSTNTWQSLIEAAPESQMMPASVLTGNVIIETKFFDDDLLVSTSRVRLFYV
Excerpt: To measure whether both inhibitors also affect the interaction of KRas with PDEδ, MDCK cells were transiently transfected with mCitrine-KRas and mCherry-PDEδ. […] To increase the fraction of KRas that interacts with PDEδ, the Protein Kinase C (PKC) activator Bryostatin, which induces serine (S181) phosphorylation on KRas[17], was applied, resulting in a reduced electrostatic interaction with the PM and increased cytosolic pool of mCitrine-KRas.
Fluorescence lifetime images were acquired using a confocal laser-scanning microscope (FV1000, Olympus) equipped with a time-correlated single-photon counting module (LSM Upgrade Kit, Picoquant). For detection of the donor (mCitrine), the sample was excited using a 470-nm diode laser (LDH 470, Picoquant) at a 36-MHz repetition frequency. […] Photons were detected using a single-photon counting avalanche photodiode (PDM Series, MPD) and timed using a single-photon counting module (PicoHarp 300, Picoquant).
Intensity thresholds were applied to segment the cells from the background fluorescence. Data were analysed via global analysis[23] to obtain images of the molar fraction (α) of interacting mCitrine-Rheb with mCherry-PDEδ. […] Dose–response relationships were determined by plotting obtained α per addition, using equation:

MAO-A (h) = target: T17, MAO-A (h) (Homo sapiens, UniProt P21397); assay: Cerep enzyme and cell-based assays; format: biochemical; conditions: read-out: % Inhibition of Control Values
T17 construct: Eurofins Pharma Discovery Services (CEREP diversity panel, outsourced assay)

Cc1ccc(-n2nc3c(=O)n(CCCC(=O)NCC(C)c4ccccc4)nc(C)c3c2C)cc1 (centres unmarked) [2k]
effect on growth (Capan-1 cells): strong growth inhibition but not cell death | time after administration at which decreasing cell indices indicated cell death (MIA PaCa-2 cells): ~40 h | EGF-induced Erk phosphorylation (Erk phosphorylation; PANC-1, 20 μM, longer incubation times (>3 h)): remained unaffected | EGF-induced Erk phosphorylation (Erk phosphorylation; PANC-1, 1 h, 5 μM Deltarasin or 20 μM Deltazinone 1, 5 min EGF): did not significantly affect | inhibition at 5 µM (GABA transaminase): 0% | inhibition at 5 µM (MT1 (ML1A) (h)): 22% | inhibition at 5 µM (V1a (h)): -4% | % Inhibition of Control Specific Binding (kainate): -6% | % Inhibition of Control Specific Binding (AMPA): 2% | inhibition at 5 µM (PKCalpha (h)): 7% | % Inhibition of Control Values (ATPase (Na+/K+)): 7% | metabolism in mice [1]: rapidly metabolized | inhibition at 5 µM [2]: 2% | Tmax (in vivo; ip): 4.8 min | C0 (in vivo; iv): 3380 ng/mL | Vd (in vivo; iv): 1.18 L/kg | clearance (in vivo; iv): 30.8 mL/min/kg | AUC(0-inf) (in vivo; iv, AUC 0-inf): 1620 ng·h/mL | AUC(0-t) (in vivo; iv, AUC 0-t): 1620 ng·h/mL | half-life (in vivo; iv, t1/2): 21 min | inhibition at 5 µM (TRH1 (h)): 7% | inhibition at 5 µM (A3 (h)): 59% | % Inhibition of Control Specific Binding [3]: -4% | % Inhibition of Control Specific Binding [4]: -2% | % Inhibition of Control Values [5]: 11% | inhibition at 5 µM (GR (h)): -9% | inhibition at 5 µM (beta 2 (h)): 9%

c1ccc(Cn2c(-c3ccc(OC[C@H](C4CCNCC4)n4c(-c5ccccc5)nc5ccccc54)cc3)nc3ccccc32)cc1 [Deltarasin, reference compound]
inhibition at 5 µM (HDAC6 (h)): 3% | inhibition at 5 µM [6]: 7% | inhibition at 5 µM (MT1 (ML1A) (h)): 28% | inhibition at 5 µM (V1a (h)): 21% | % Inhibition of Control Specific Binding (kainate): 14% | % Inhibition of Control Specific Binding (AMPA): 17% | inhibition at 5 µM (PKCalpha (h)): 66% | inhibition at 5 µM (HDAC11 (h)): 37% | inhibition at 5 µM (CENP-E (h)): 6% | inhibition at 5 µM (TRH1 (h)): 42% | inhibition at 5 µM (acetylcholinesterase (h)): 9% | inhibition at 5 µM (A3 (h)): 70% | % Inhibition of Control Specific Binding [3]: 61% | inhibition at 5 µM [7]: 4% | % Inhibition of Control Specific Binding [4]: 87% | % Inhibition of Control Values [5]: 4% | interaction between mCitrine-KRas and mCherry-PDEδ [8]: abolished the interaction | inhibition at 5 µM (GR (h)): 40% | inhibition at 5 µM (beta 2 (h)): 7% | inhibition at 5 µM (MAO-A (h)): 1%
